Experimental data published in patent publication US8835476B2, “Synthesis of novel antimicrobials” (priority 2005, dated 2014).
In brackets after ≈: the same amount, converted by molar mass. Where two headings read alike, the source gives them in different places.

What was measured:
Format in all cases: cell-based
[1] = system: P. rettgeri CAP; experiment: Broth microdilution MIC, reference strains; conditions: Providencia rettgeri; P. rettgeri (CAP in Table 1); read-out: MIC (growth inhibition, microdilution method)
Source text: (§1) All clinical isolates tested were from The North American Urinary Tract Infection Collaborative Alliance (NAUTICA) which is a UTI surveillance study involving 40 medical centres (30 from the US and 10 from Canada). Each centre submitted up to 50 consecutive outpatient midstream urine isolates. All isolates were deemed significant urinary tract pathogens by individual laboratory criteria and identified to the species level by each laboratory's existing protocol. Isolates were transported to the coordinating laboratory (Health Sciences Centre, Winnipeg, Canada) on charcoal swabs. Only one isolate per patient was accepted. Upon receipt, isolates were cultured by the coordinating laboratory, stocked in skim milk, and stored at −80° C. awaiting reference antibiotic susceptibility testing. Elementary demographic information was also compiled for each isolate. Isolates were selected randomly from the above pool to represent 18 different species of Enterobacteriaceae and non-Enterobacteriaceae. An average of 5 strains of each species were tested for a total of 93 organisms. In addition, 23 reference (ATCC) [both gram negative and gram positive] strains were tested.
(§2) Susceptibilities to the compounds were determined using the National Committee for Clinical Laboratory Standards (NCCLS) M7-A6 broth microdilution method. […] DMSO controls were incorporated into the panel to mimic the quantity of DMSO used in dissolving some of the compounds at the higher concentrations. Each final panel well volume was 100 μl with a bacterial inoculum of 5×10^5 colony forming units (CFU)/ml. Panels were read following 16 to 20 hours of incubation at 35° C. in ambient air. The minimum inhibitory concentration (MIC) was defined as the lowest concentration of antimicrobial inhibiting visible growth. Quality control (QC) was performed using four ATCC QC organisms that were run with every batch set up to insure reproducibility.

[2] = system: S. liquefaciens ATCC 27592; experiment: Broth microdilution MIC, ATCC strains; conditions: S. liquefaciens ATCC 27592; read-out: MIC (growth inhibition, microdilution method)
Source text: as §1, §2

[3] = system: E. aerogenes ATCC 13048; experiment: Broth microdilution MIC, ATCC strains; conditions: Klebsiella aerogenes, ATCC13048; E. aerogenes ATCC 13048; read-out: MIC (growth inhibition, microdilution method)
Source text: as §1, §2

[4] = system: K. oxytoca ATCC 49131; experiment: Broth microdilution MIC, ATCC strains; conditions: Klebsiella oxytoca, ATCC49131; K. oxytoca ATCC 49131; read-out: MIC (growth inhibition, microdilution method)
Source text: as §1, §2

[5] = system: B. cepacia ATCC 25416; experiment: Broth microdilution MIC, ATCC strains; conditions: Burkholderia cepacia, ATCC25416; B. cepacia ATCC 25416; read-out: MIC (growth inhibition, microdilution method)
Source text: as §1, §2

[6] = system: MRSA ATCC 33591; experiment: Broth microdilution MIC, ATCC strains; conditions: Staphylococcus aureus; MRSA ATCC 33591; read-out: MIC (growth inhibition, microdilution method)
Source text: as §1, §2

[7] = system: P. mirabilis ATCC 29245; experiment: Broth microdilution MIC, ATCC strains; conditions: Proteus mirabilis, ATCC29245; P. mirabilis ATCC 29245; read-out: MIC (growth inhibition, microdilution method)
Source text: as §1, §2

[8] = system: P. vulgaris ATCC 49132; experiment: Broth microdilution MIC, ATCC strains; conditions: Proteus vulgaris, ATCC49132; P. vulgaris ATCC 49132; read-out: MIC (growth inhibition, microdilution method)
Source text: as §1, §2

[9] = system: K. pneumoniae ATCC 13883; experiment: Broth microdilution MIC, ATCC strains; conditions: Klebsiella pneumoniae, ATCC13883; K. pneumoniae ATCC 13883; read-out: MIC (growth inhibition, microdilution method)
Source text: as §1, §2

[10] = system: E. cloacae ATCC 23355; experiment: Broth microdilution MIC, ATCC strains; conditions: Enterobacter cloacae, ATCC23355; E. cloacae ATCC 23355; read-out: MIC (growth inhibition, microdilution method)
Source text: as §1, §2

[11] = system: A. anitratus ATCC 19606; experiment: Broth microdilution MIC, ATCC strains; conditions: Acinetobacter calcoaceticus, ATCC19606; A. anitratus ATCC 19606; read-out: MIC (growth inhibition, microdilution method)
Source text: as §1, §2

[12] = system: S. warneri ATCC 27836; experiment: Broth microdilution MIC, ATCC strains; conditions: Staphylococcus warneri, ATCC27836; S. warneri ATCC 27836; read-out: MIC (growth inhibition, microdilution method)
Source text: as §1, §2

[13] = system: E. faecalis ATCC 29212; experiment: Broth microdilution MIC, ATCC strains; conditions: Enterococcus faecalis, read-out: MIC (growth inhibition, microdilution method)
Source text: as §1, §2

[14] = system: S. marcescens ATCC 8100; experiment: Broth microdilution MIC, ATCC strains; conditions: Serratia marcescens, ATCC8100; S. marcescens ATCC 8100; read-out: MIC (growth inhibition, microdilution method)
Source text: as §1, §2

[15] = system: E. faecium ATCC 35667; experiment: Broth microdilution MIC, ATCC strains; conditions: Enterococcus faecium, ATCC35667, read-out: MIC (growth inhibition, microdilution method)
Source text: as §1, §2

[16] = system: S. saprophyticus ATCC 15305; experiment: Broth microdilution MIC, ATCC strains; conditions: Staphylococcus saprophyticus, ATCC15305; S. saprophyticus ATCC 15305; read-out: MIC (growth inhibition, microdilution method)
Source text: as §1, §2

[17] = system: S. simulans ATCC 27848; experiment: Broth microdilution MIC, ATCC strains; conditions: Staphylococcus simulans, ATCC27848, read-out: MIC (growth inhibition, microdilution method)
Source text: as §1, §2

[18] = system: Ps. aeruginosa ATCC 27853; experiment: Broth microdilution MIC, ATCC strains; conditions: Pseudomonas aeruginosa, ATCC27853; Ps. aeruginosa ATCC 27853; read-out: MIC (growth inhibition, microdilution method)
Source text: as §1, §2

[19] = system: E. coli ATCC 25922; experiment: Broth microdilution MIC, ATCC strains; conditions: Escherichia coli, ATCC25922, E. coli ATCC 25922; read-out: MIC (growth inhibition, microdilution method)
Source text: as §1, §2

[20] = system: S. aureus ATCC 29213; experiment: Broth microdilution MIC, ATCC strains; conditions: Staphylococcus aureus, ATCC29213, S. aureus ATCC 29213; read-out: MIC (growth inhibition, microdilution method)
Source text: as §1, §2

[21] = system: Pr. stuartii ATCC 33672; experiment: Broth microdilution MIC, ATCC strains; conditions: Providencia stuartii, ATCC33672; Pr. stuartii ATCC 33672; read-out: MIC (growth inhibition, microdilution method)
Source text: as §1, §2

[22] = system: S. maltophilia ATCC 13637; experiment: Broth microdilution MIC, ATCC strains; conditions: Stenotrophomonas maltophilia, ATCC13637; S. maltophilia ATCC 13637; read-out: MIC (growth inhibition, microdilution method)
Source text: as §1, §2

[23] = system: S. epidermidis ATCC 14990; experiment: Broth microdilution MIC, ATCC strains; conditions: Staphylococcus epidermidis, ATCC14990; S. epidermidis ATCC 14990; read-out: MIC (growth inhibition, microdilution method)
Source text: as §1, §2

[24] = system: S. maltophilia clinical isolates; experiment: Broth microdilution MIC, clinical isolate strains (NAUTICA); conditions: clinical isolates, one table line per isolate; unit assumed
Source text: as §1, §2

[25] = system: M. morganii clinical isolates; experiment: as above; conditions: clinical isolates, one table line per isolate; unit assumed
Source text: as §1, §2

[26] = system: S. liquifaciens clinical isolates; experiment: as above; conditions: clinical isolates, one table line per isolate; unit assumed
Source text: as §1, §2

[27] = system: C. koseril clinical isolates; experiment: as above; conditions: clinical isolates, one table line per isolate; unit assumed
Source text: as §1, §2

[28] = system: E. aerogenes clinical isolates; experiment: as above; conditions: clinical isolates, one table line per isolate; unit assumed
Source text: as §1, §2

[29] = system: S. marcescens clinical isolates; experiment: as above; conditions: clinical isolates, one table line per isolate; unit assumed
Source text: as §1, §2

[30] = system: A. baumanii clinical isolates; experiment: as above; conditions: clinical isolates, one table line per isolate; unit assumed
Source text: as §1, §2

[31] = system: B. cepacia clinical isolates; experiment: as above; conditions: clinical isolates, one table line per isolate; unit assumed
Source text: as §1, §2

[32] = system: E. cloacae clinical isolates; experiment: as above; conditions: clinical isolates, one table line per isolate; unit assumed
Source text: as §1, §2

[33] = ATCC29212, E. faecalis ATCC 29212
[34] = ATCC29212, E. faecalis, ATCC number not given

`Cn1nnnc1-c1cc(C(=O)O)sc1C(=O)O` [DNM-113, 3-(1-Methyl-1H-tetrazol-5-yl)-thiophene-2,5-dicarboxylic acid] was tested, and the MIC [1] was 8 µg/mL (≈ 31.5 µM), the MIC [2] was 8 µg/mL (≈ 31.5 µM) and the MIC [3] was 8 µg/mL (≈ 31.5 µM). For the same compound, the MIC [4] was 8 µg/mL (≈ 31.5 µM), the MIC [5] was 8 µg/mL (≈ 31.5 µM) and the MIC [6] was 64 µg/mL (≈ 252 µM). It also gave an MIC [7] of 16 µg/mL (≈ 62.9 µM), an MIC [8] of 16 µg/mL (≈ 62.9 µM) and an MIC [9] of 8 µg/mL (≈ 31.5 µM). It also gave an MIC [10] of 8 µg/mL (≈ 31.5 µM), an MIC [11] of 8 µg/mL (≈ 31.5 µM) and an MIC [12] of 16 µg/mL (≈ 62.9 µM). The MIC [13, 33] was 8 µg/mL (≈ 31.5 µM), the MIC [13, 34] was 8 µg/mL (≈ 31.5 µM) and the MIC [14] was 8 µg/mL (≈ 31.5 µM). For the same compound, the MIC [15] was 8 µg/mL (≈ 31.5 µM), the MIC [16] was 8 µg/mL (≈ 31.5 µM) and the MIC [17] was 32 µg/mL (≈ 126 µM). The MIC [18] was 8 µg/mL (≈ 31.5 µM), the MIC [19] was 8 µg/mL (≈ 31.5 µM) and the MIC [20] was 32 µg/mL (≈ 126 µM). For the same compound, the MIC [21] was 16 µg/mL (≈ 62.9 µM), the MIC [22] was 8 µg/mL (≈ 31.5 µM) and the MIC [23] was 8 µg/mL (≈ 31.5 µM). It also gave an MIC, S. MALTOPHILIA [24] of 8 µg/mL (≈ 31.5 µM), an MIC, M. MORGANII [25] of 8 µg/mL (≈ 31.5 µM) and an MIC, S. LIQUEFACIENS [26] of 8 µg/mL (≈ 31.5 µM). It also gave an MIC, C. KOSERI [27] of 8 µg/mL (≈ 31.5 µM), an MIC, E. AEROGENES [28] of 8 µg/mL (≈ 31.5 µM) and an MIC, S. MARCESCENS [29] of 8 µg/mL (≈ 31.5 µM). For the same compound, the MIC, A. BAUMANII [30] was 8 µg/mL (≈ 31.5 µM) and the MIC, B. CEPACIA [31] was 8 µg/mL (≈ 31.5 µM).

With `COC(=O)c1cc(-c2nnnn2C)c(C(=O)OC)s1` [DNM-115, 3-(1-Methyl-1H-tetrazol-5-yl)-thiophene-2,5-dicarboxylic acid dimethyl ester] the MIC [1] was 16 µg/mL (≈ 56.7 µM), the MIC [2] was 8 µg/mL (≈ 28.3 µM) and the MIC [3] was 8 µg/mL (≈ 28.3 µM). The MIC [4] was 8 µg/mL (≈ 28.3 µM), the MIC [5] was 8 µg/mL (≈ 28.3 µM) and the MIC [6] was over 16 µg/mL. The MIC [7] was 16 µg/mL (≈ 56.7 µM), the MIC [8] was 16 µg/mL (≈ 56.7 µM) and the MIC [9] was 8 µg/mL (≈ 28.3 µM). It also gave an MIC [10] of over 16 µg/mL, an MIC [11] of 8 µg/mL (≈ 28.3 µM) and an MIC [12] of over 16 µg/mL. It also gave an MIC [13, 33] of 8 µg/mL (≈ 28.3 µM), an MIC [13, 34] of 8 µg/mL (≈ 28.3 µM) and an MIC [14] of 8 µg/mL (≈ 28.3 µM). For the same compound, the MIC [15] was 8 µg/mL (≈ 28.3 µM), the MIC [16] was 8 µg/mL (≈ 28.3 µM) and the MIC [17] was over 16 µg/mL. It also gave an MIC [18] of 8 µg/mL (≈ 28.3 µM), an MIC [19] of 8 µg/mL (≈ 28.3 µM) and an MIC [20] of over 16 µg/mL. The MIC [21] was over 16 µg/mL, the MIC [22] was 8 µg/mL (≈ 28.3 µM) and the MIC [23] was 8 µg/mL (≈ 28.3 µM). For the same compound, the MIC, E. CLOACAE [32] was over 16 µg/mL, the MIC, S. MALTOPHILIA [24] was 8 µg/mL (≈ 28.3 µM) and the MIC, A. BAUMANII [30] was 8 µg/mL (≈ 28.3 µM). For the same compound, the MIC, B. CEPACIA [31] was 8 µg/mL (≈ 28.3 µM).
